Assay results published in US12102631B2, “Quinolylnitrones for the treatment and prevention of a cerebral stroke or ischaemia” (ISQUAEMIA BIOTECH, S.L., priority 2018, dated 2024).

Key:
tMCAO in C57BL/6 mice [1] = assay: Grip strength test after transient middle cerebral artery occlusion (tMCAO); type: in vivo
Experimental: Animal model of focal cerebral ischemia. Transient occlusion of a distal branch of the middle cerebral artery (tMCAO) was induced in male C57BL/6 mice (9-12 week old, Charles River) as previously described.^57 The animals were housed in a light/dark cycle (12 hour), humidity and temperature (22±2° C.) controlled environment with food and water available ad libitum. Briefly, mice were anesthetized with 4% isoflurane for induction and 1.5-2% isoflurane for maintenance (in 79% N2/21% O2). After drilling a small hole on the temporal bone, the middle cerebral artery (MCA) was compressed for 60 min with a 30-G needle using a micromanipulator. During the surgery, body temperature was maintained between 37.0±0.5° C. using a homoeothermic blanket and CBF was monitored using laser-Doppler flowmetry to confirm MCA occlusion. Buprenorphine (0.05-0.1 mg/kg) was administered subcutaneously immediately before the procedure. A total of 28 mice were subjected to tMCAO according to the design of the study. We performed a power analysis to determine sample size (significance level set at 0.05, the power set at 0.8 (80%)) resulting in 8 animals per experimental group. Surgical inclusion criteria: a reduction in blood flow to <25% of baseline value during ischemia period, and a recovery of 75% of baseline value in the reperfusion period. […] Mice were randomly assigned using a randomization software to the following experimental groups (n=8 per group): vehicle (saline-EtOH 90:10 vol/vol), nitrone 23 (1.5 mg/kg) and nitrone 23 (2.0 mg/kg). The treatments were administered intraperitoneally at the onset of reperfusion period by a blinded investigator. […]
Motor-deficit evaluation, grip strength test. […] A total of 6 trials were conducted for each test and the strength value was calculated as the mean of them.
To assess the neuroprotective effect of QN 23 on experimental ischemic stroke, we induced a transient middle cerebral artery occlusion (tMCAO) and evaluated the motor deficits by grip strength test at 24 h and 48 h after the administration of QN 23. […]

[2] = tested on: primary neuronal cultures subjected to OGD; assay: Lipid peroxidation (MDA) in primary neuronal cultures after OGD; type: cell-based, rat; details: 4 h recovery after 4 h OGD; significant at 100 μM
Experimental: Lipid peroxidation. Lipid peroxidation was evaluated by the detection of end products such as malondialdehyde (MDA) as a result of oxidative attack to polyunsaturated lipids. Lipid peroxidation was determined by the reaction of MDA with thiobarbituric acid (TBA) to form a colorimetric/fluorometric product, proportional to the MDA present. After recovery period for 4 h, cells (1.5×10^6) were lysed and centrifuged according to the supplier instructions (Sigma, MAK085), and then the thiobarbituric acid was added to the supernatant and mixed in a vortex. The samples were incubated at 95° C. for 60 min, cooled to room temperature and then n-butanol and 5M NaCl were added in a reaction mixture 8:3:1 (v/v) sample:n-butanol:NaCl. After mixed in a vortex, the samples were centrifuged, the n-butanol layer was taken and evaporated, the MDA-TBA adducts were dissolve in water and the absorbance was measured at 540 nm.
Exposure of neuronal cultures to 4 h OGD induced significant ROS generation after 2 h recovery in normoxic and normoglycemic conditions (R2 h) (210%, p<0.005 compared with 100% control) (FIG. 5A). […] ROS generation may induce lipid peroxidation and cell membrane damage. […]

[3] = tested on: Carrageenan-induced rat paw edema; assay: Inhibition of Carrageenan-induced rat paw edema; type: in vivo, Fisher 344 rats; details: 0.01 mmol/kg intraperitoneally; 3.5 h after Carrageenan
Experimental: Inhibition of the Carrageenan-induced edema. Edema was induced in the right hind paw of Fisher 344 rats (150-200 g) by the intradermal injection of 0.1 mL 2% Carrageenan in water. Both sexes were used. Females pregnant were excluded. Each group was composed of 6 animals. The experiment was performed twice for validation. The animals, which have been bred in our laboratory, were housed under standard conditions and received a diet of commercial food pellets and water ad libitum during the maintenance, but they were entirely fasted during the experiment period. Nitrone 23 as well as of the standard drug indomethacin in 0.01 mmol/kg body weight, were diluted in water with few drops of Tween 80 and ground in a mortar before use and they were given intraperitoneally simultaneously with the Carrageenan injection. The rats were euthanized 3.5 h after Carrageenan administration. The difference between the weight of the injected and uninjected paws was calculated for each animal. The change in paw weight was compared with that in control animals (treated with water/or Tween-water) and expressed as a percent inhibition of the edema % ICPE values (Table 2). Values % ICPE are the mean from two different experiments (n=6 animals each time) with a standard error of the mean less than 10%.

tMCAO in C57BL/6 mice [4] = assay: Infarct size (TTC staining) after tMCAO; type: in vivo; details: 2.0 mg/kg; 48 h after tMCAO
Experimental: Animal model of focal cerebral ischemia. Transient occlusion of a distal branch of the middle cerebral artery (tMCAO) was induced in male C57BL/6 mice (9-12 week old, Charles River) as previously described.^57 The animals were housed in a light/dark cycle (12 hour), humidity and temperature (22±2° C.) controlled environment with food and water available ad libitum. Briefly, mice were anesthetized with 4% isoflurane for induction and 1.5-2% isoflurane for maintenance (in 79% N2/21% O2). After drilling a small hole on the temporal bone, the middle cerebral artery (MCA) was compressed for 60 min with a 30-G needle using a micromanipulator. During the surgery, body temperature was maintained between 37.0±0.5° C. using a homoeothermic blanket and CBF was monitored using laser-Doppler flowmetry to confirm MCA occlusion. […]
Infarct volume evaluation. The size of infarction was evaluated at 48 hours after MCAO using 2,3,5-tetrazolium chloride (TTC) staining.^58 Mice were sacrificed by transcardial perfusion with ice-cold saline under deep anesthesia. […] The infarct areas were measured using the Image-J software and the infarct volume was determined by linear integration of the measured lesion areas and distances over the sections. […]
To examine the efficacy of QN 23 treatment in animals subjected to tMCAO, the infarct size was calculated 48 h after tMCAO model induction. […]

COc1ccc2nc(Cl)c(/C=[N+](\[O-])C(C)(C)C)cc2c1 [Compound 23, (Z)—N-tert-Butyl-1-(2-chloro-6-methoxyquinolin-3-yl)methanimine oxide]
motor deficit compared with vehicle (in words) (tMCAO in C57BL/6 mice [1]; 1.5 mg/kg and 2.0 mg/kg, 48 h after treatment): significant decrease of motor deficit
grip strength compared with vehicle (in words) (tMCAO in C57BL/6 mice [1]; 2.0 mg/kg, 24 h after treatment): improvement in the grip strength which was significant
improvement of grip strength (tMCAO in C57BL/6 mice [1]; 48 h after treatment): 20.7%
lipid peroxidation [2]: significantly decreased compared to R4 h value
ICPE % [3]: 48.5 ± 0.8 %
size of the ischemic lesion (in words) (tMCAO in C57BL/6 mice [4]): significantly lower than in vehicle treated animals
